Patent publication US10722491B2, “Phenol compound and combination of same with a benzodiazepine fused to 1,4-dihydropyridine for treating diseases of the central nervous and vascular systems” (UNIVERSIDAD DE LA HABANA, priority 2016, dated 2020)

Tested on: occlusion of the middle cerebral artery in rats
Experiment: Transient middle cerebral artery occlusion, cerebral infarct size (TTC)
Format: in vivo
Details: for Total volume of infarction (percentage of the contralateral hemisphere): 1 hour after reperfusion, 90 min occlusion, 23 h reperfusion, vehicle 27.5%
Procedure: FIG. 13. Acute treatment with KM-34 reduced the volume of infarction edema and deficit in rat behavior after 90 min of middle cerebral artery occlusion (MACA) and 23 hours of reperfusion. The different doses of the compound were administered orally 1 hour after reperfusion. (A) Representative brain coronal sections (2 mm thick) of the sham and ischemic groups treated with vehicle or KM-34 (0.1, 0.5 or 1 mg/kg) and stained with 2,3,5-triphenyltetrazolium (TTC) 2%. The red regions correspond to undamaged tissue and white to ischemic regions. (B) Quantitative analysis of cortical, subcortical and total lesion size. (C) Neurological deficit. The bars represent the mean ± SEM (n=8). Different letters in (A) and * in (B): p<0.05, by ANOVA and post hoc of Newman-Keuls. Scale=10 mm.
The animals were randomly divided into the following groups (n=8 per group): (1) vehicle treated ischemia/reperfusion (I/R) control, (2) KM-34 treated I/R 0.1 mg/kg, (3) I/R treated with KM-34 0.5 mg/kg, (4) I/R treated with KM-34 1 mg/kg, (5) sham-operated vehicle treated and (6) sham—With KM-34 1 mg/kg. In all cases the treatment was administered orally (with an intragastric cannula). […]
Transient cerebral ischemia was performed by the OACM, using the intraluminal filament method. […] After 23 hours of reperfusion, the neurological deficit was evaluated and the animals sacrificed to determine the infarct volume and perform the behavioral evaluations.
Cerebral infarction was determined by staining with TTC, a colorless compound in solution but which, when reduced by dehydrogenases of functional mitochondria, forms a red brick formazan salt. […]
The animals were anesthetized again after the neurological evaluation and were perfused transcardially with 20 mL of saline at 4° C. […] The edema index (volume of the hemisphere ipsilateral to the OACM/volume of the contralateral hemisphere) and the volume of corrected infarction (volume of the lesion/edema index) were calculated to avoid overestimation of the infarct volume by cerebral edema. Infarct volume was expressed as a percentage of the contralateral hemisphere.

For `CC1(C)OC(=O)C(=Cc2ccc(O)c(O)c2)C(=O)O1` [KM-34, 5-[(3,4-dihydroxyphenyl)methylidene]-2,2-dimethyl-1,3-dioxane-4,6-dione], the “Total volume of infarction (percentage of the contralateral hemisphere)” value (0.5 mg/kg oral) was 15.7%, the “Total volume of infarction (percentage of the contralateral hemisphere)” value (1 mg/kg oral) was 5.3% and the “Tissue damage or behavioral alterations under basal conditions” value (sham group (without OACM), KM-34 1 mg/kg oral) was “no sign of tissue damage or behavioral alterations”.
